Assay results: EPA's ToxValDB 9.5 (doi:10.2903/j.efsa.2016.4493)

Legend:
[1] = tested on: Apis mellifera; conditions: acute, mortality
[2] = tested on: Bibionidae; conditions: chronic/long-term; duration: 28 days; other
[3] = tested on: Oncorhynchus mykiss
[4] = tested on: Folsomia candida; conditions: chronic/long-term; duration: 4 weeks; reproduction
[5] = tested on: Tagia sp.; conditions: mortality
[6] = tested on: Oryctolagus sp.; conditions: developmental; development
[7] = tested on: Mus musculus; conditions: acute; oral; mortality
[8] = tested on: Rattus norvegicus
[9] = tested on: Coturnix japonica

| SMILES | LD50 ([1]; dermal) | LD50 ([1]; oral, unspecified) | NOEC [2] | LC50 ([3]; acute, duration: 96 hours, mortality) | NOEC ([3]; chronic/long-term, duration: 28 days, development) | NOEC [4] | LC50 ([5]; acute, duration: 14 days) | NOEC ([5]; chronic/long-term) | NOAEL [6] | LD50 [7] | NOAEL ([8]; chronic, duration: 2 years, body weight) | NOAEL ([8]; subchronic, duration: 90 days, oral, hematological) | LD50 ([9]; acute, oral, diet, mortality) | LC50 ([9]; acute, oral, mortality) | NOAEL ([9]; chronic) |
| --- | --- | --- | --- | --- | --- | --- | --- | --- | --- | --- | --- | --- | --- | --- | --- |
| O=S(=O)(O)O.Oc1cccc2cccnc12.Oc1cccc2cccnc12 [8-Hydroxyquinoline sulfate] | > 100 µg/piece | > 68.6 µg/piece | 167 mg/L | 2.68 µg/mL | 10.5 µg/L | 52.4 mg/kg | > 409 mg/kg | 417 mg/kg |  |  |  |  |  |  |  |
| Oc1cccc2cccnc12 [8-Hydroxyquinoline] |  |  |  |  |  |  |  |  | 5 mg/kg-day | 177 mg/kg-day | 73 mg/kg-day | 97.7 mg/kg-day | > 1070 mg/kg-day | 311 mg/kg-day | 2.78 mg/kg-day |
